From US12630552B2, “Inhibitors of KRAS G12C” (BEIGENE, LTD., priority 2019, dated 2026)
pIC50: −log10 of the molar value.

Target: T1, KRAS (aa 1-169) G12C, C51S, C80L, C118S (Homo sapiens, UniProt P01116, C118S/C51S/C80L/G12C)
T1 construct: The KRAS (aa 1-169) G12C, C51S, C80L, C118S with a His-tag; made in house
Assay: KRAS G12C SOS1-mediated nucleotide exchange / GST-cRaf RBD binding FRET assay
Assay type: biochemical
Conditions: GDP-loaded KRAS G12C pre-incubated with compound at 24° C. for 3 hrs; SOS1, GTPγS and GST-cRaf RBD added; FRET 665 nm/620 nm
Procedure: Biochemical Functional Assay:
The KRAS (aa 1-169) G12C, C51S, C80L, C118S with a His-tag was expressed, purified and loaded with GDP in house. All protein and substrate solutions were prepared in assay buffer containing 25 mM HEPES pH7.5, 10 mM MgCl2, and 0.01% Triton X-100. Purified GDP-loaded KRAS (aa 1-169) G12C, C51S, C80L, C118S protein was pre-incubated with a serially diluted compound at 24° C. for 3 hrs. Purified SOS1 (aa 564-1049) protein, GTPγS (Sigma) and GST-cRaf RBD (aa 1-149) were then added to each well and incubated at 24° C. for additional 3 hrs. […] Following the incubation, Mab Anti-6HIS-Tb cryptate (Cisbio) and Mab Anti GST-XL665 (Cisbio) were added and further incubated at 24° C. for 3 hrs. The binding interaction between active GTPγS KRAS G12C and GST-cRaf RBD brings the Tb and XL665 into close proximity enabling an increased FRET signal (Ex337 nm, Em665 nm/620 nm). The inhibition percentage of nucleotide exchange reaction in presence of increasing concentrations of compounds was calculated based on the ratio of fluorescence at 665 nm to that at 620 nm detected on a BMG PHERAstar FSX instrument. The IC50 value of each compound was calculated from fitting the data to the four-parameter logistic model by Dotmatics.

T1 sequence (P01116 1-169 isoform P01116-2 G12C/C51S/C80L/C118S): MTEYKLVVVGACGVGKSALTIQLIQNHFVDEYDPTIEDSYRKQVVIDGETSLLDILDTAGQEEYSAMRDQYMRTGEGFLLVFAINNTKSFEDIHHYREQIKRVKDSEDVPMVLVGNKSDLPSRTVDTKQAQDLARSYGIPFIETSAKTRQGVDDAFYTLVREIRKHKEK

Compound: C=CC(=O)N1CCN(c2nc(OC[C@@H]3CCCN3C)nc3c2CN(C(=O)c2cc(O)ccc2C)C3)C[C@@H]1CC#N [Example 47]
- pIC50: 6.99

Compound: C=CC(=O)N1CCN(c2nc(OC3CCN(C)CC3)nc3c2CN(C2Cc4cccc5cccc2c45)C3)CC1CC#N (single isomer, unassigned) [Example 17 (P1)]
- pIC50: 5.66

Compound: C=CC(=O)N1CCN(c2nc(OC[C@@H]3CCCN3C)nc3c2CN(C(=O)c2c(C)ccc4ccccc24)C3)C[C@@H]1CC#N [Example 34, 2-((S)-1-acryloyl-4-(6-(2-methyl-1-naphthoyl)-2-(((S)-1-methylpyrrolidin-2-yl)methoxy)-6,7-dihydro-5H-pyrrolo[3,4-d]pyrimidin-4_yl)piperazin-2-yl)acetonitrile]
- pIC50: 6.30

Compound: C=CC(=O)N1CCN(c2nc(OC[C@@H]3CCCN3C)nc3c2CN(C(=O)c2c(C)ccc4[nH]ncc24)C3)C[C@@H]1CC#N [Example 31, 2-((S)-1-acryloyl-4-(6-(5-methyl-1H-indazole-4-carbonyl)-2-(((S)-1-methylpyrrolidin-2-yl)methoxy)-6,7-dihydro-5H-pyrrolo[3,4-d]pyrimidin-4-yl)piperazin-2-yl)acetonitrile]
- pIC50: 6.52

Compound: C=CC(=O)N1CCN(c2nc(OC[C@@H]3CCCN3C)nc3c2CN(Cc2c(O)ccc4ccccc24)C3)C[C@@H]1CC#N [Example 42, 2-((S)-1-acryloyl-4-(6-((2-hydroxynaphthalen-1-yl)methyl)-2-(((S)-1-methylpyrrolidin-2-yl)methoxy)-6,7-dihydro-5H-pyrrolo[3,4-d]pyrimidin-4-yl)piperazin-2-yl)acetonitrile]
- pIC50: 5.00

Compound: C=CC(=O)N1CCN(c2nc(OC[C@@H]3CCCN3C)nc3c2CN(c2ccc4ccccc4c2)C3)C[C@@H]1CC#N [Example 26]
- pIC50: 5.97

Compound: C=CC(=O)N1CCN(c2nc(OC[C@@H]3CCCN3C)nc3c2CN(Cc2ccccc2)C3=O)C[C@@H]1CC#N [Example 44]
- pIC50: 5.05

Compound: C=CC(=O)N1CCN(c2nc(OC[C@@H]3CCCN3C)nc3c2CN(C(=O)c2cccc4ccccc24)C3)C[C@@H]1CC#N [Example 32, 2-((S)-4-(6-(1-naphthoyl)-2-(((S)-1-methylpyrrolidin-2-yl)methoxy)-6,7-dihydro-5H-pyrrolo[3,4-d]pyrimidin-4-yl)-1-acryloylpiperazin-2-yl)acetonitrile]
- pIC50: 7.40

Compound: C=CC(=O)N1CCN(c2nc(OC[C@@H]3C[C@@H](O)CN3C)nc3c2CN(C2Cc4cccc5cccc2c45)C3)C[C@@H]1CC#N (stereo partly drawn) [Example 51]
- pIC50: 7.79

Compound: C=CC(=O)N1CCN(c2nc(OC[C@@H]3CCCN3C)nc3c2CN(Cc2cccc4cccc(Cl)c24)C3)C[C@@H]1CC#N [Example 9, 2-((S)-1-acryloyl-4-(6-((8-chloronaphthalen-1-yl)methyl)-2-(((S)-1-methylpyrrolidin-2-yl)methoxy)-6,7-dihydro-5H-pyrrolo[3,4-d]pyrimidin-4-yl)piperazin-2-yl)acetonitrile]
- pIC50: 6.58

Compound: C=CC(=O)N1CCN(c2nc(OC[C@@H]3CCCN3C)nc3c2CN(Cc2cccc4cccc(O)c24)C3)C[C@@H]1CC#N [Example 24, 2-((S)-1-acryloyl-4-(6-((8-hydroxynaphthalen-1-yl)methyl)-2-(((S)-1-methylpyrrolidin-2-yl)methoxy)-6,7-dihydro-5H-pyrrolo[3,4-d]pyrimidin-4-yl)piperazin-2-yl)acetonitrile]
- pIC50: 7.00

Compound: C=CC(=O)N1CCN(c2nc(OC[C@@H]3CCCN3C)nc3c2CN(Cc2cc(O)cc4ccccc24)C3)C[C@@H]1CC#N [Example 25, 2-((S)-1-acryloyl-4-(6-((3-hydroxynaphthalen-1-yl)methyl)-2-(((S)-1-methylpyrrolidin-2-yl)methoxy)-6,7-dihydro-5H-pyrrolo[3,4-d]pyrimidin-4-yl)piperazin-2-yl)acetonitrile]
- pIC50: 8.49
